Results published in US12324927B2, “Methods and systems for photodynamic therapy calculations” (THE TRUSTEES OF THE UNIVERSITY OF PENNSYLVANIA, priority 2018, dated 2025).
Several values for one entry are separate records, joined by “and”; a condition that tells them apart may be missing. Equal values may be shown once.

Assay: Photofrin concentration and PDT dose at pleural cavity sites measured by fluorescence with 4-channel PDT dose dosimeter during Photofrin-mediated pleural PDT
Assay type: in vivo, human
Details: for Mean Photofrin concentration: local tissue concentration per patient and pleural site, Photofrin 2 mg kg^−1 i.v. 24 h before PDT, mean ± SD of smoothed values
Procedure: The patients in this study were enrolled in a Phase II randomized clinical trial of Photofrin-mediated PDT for pleural mesothelioma treatment. Having given informed consent, they were administered Photofrin (Pinnacle Biologics, Chicago, IL, USA) at 2 mg kg^−1 of body weight as an intravenous infusion 24 h prior to intra-operative PDT. PDT was performed in the operating room, immediately following radical pleurectomy and debulking of tumor. PDT treatment was performed with 632 nm light provided by a KTP-pumped dye laser (model 630 XP, Laserscope, Inc., San Jose, CA, USA) to a total fluence of 60 J cm^−2. Light was delivered to the pleural cavity via an optical fiber inserted into modified endotracheal tube filled with 0.1% intralipid to produce an extended isotropic light source. The pleural cavity was filled with 0.01% intralipid solution during PDT treatment. As the intralipid solution became contaminated with blood as observed by the treating physician, it was repeatedly removed by suction pump and replaced with fresh solution to minimize light absorption by hemoglobin. The light source was circulated around in the lung cavity by the physician during the PDT. The instantaneous light fluence rate and the cumulative light dose were monitored continuously using 8 isotropic detectors (Medlight, Switzerland) sutured to 8 strategic locations within the pleural cavity wall. […] Each spectrometer has wavelength range of 200 nm-1050 nm and resolution of 0.42 nm using a diode array of 2048×1 elements and 14 μm×200 μm per element. The spectral resolution achieved was 0.47 nm. Isotropic detectors 9 to 12 were connected to the multichannel dosimetry system only. The dosimetry system records light fluence rate using photodiodes. Light fluence rate at surface is measured directly with an isotropic detector placed on the surface. The measured light fluence rate is not reflective of intra-tissue light fluence rate, which may be higher or lower than the value on the tissue surface depending on the tissue optical properties. Fluorescence collected by the fibers was collimated and passed through long pass filters (Semrock, Inc., Rochester, NY, USA) to block the treatment light before the transmitted fluorescence was recorded by the spectrometers, whereas no filtration was required for the treatment-light signal in the other arm of the bifurcated fibers. The front view and the schematic diagram of the system setup are shown in FIGS. 1A-B. There are 16 channels on the system enclosure as shown in FIG. 1A. Channels 9 to 16 (top row) are connected to the dosimetry system only whereas Channels 1 to 4 (bottom row) are connected to both the dosimetry system and the spectrometers. Channels 5 to 8 (bottom row) are currently not used. In this study, Channels 1 to 4 are used to measure fluence rate of the treatment light and Photofrin fluorescence concurrently, while Channel 9 to 12 are used to measure light fluence rate only.
Diffuse reflectance measurements were acquired before and after PDT treatment using a specially designed fiber optic-based contact probe comprising (e.g., or consisting of) one source fiber, coupled to an air-cooled quartz-tungsten-halogen (QTH) lamp (Avalight HAL-S, Avantes, Inc., Louisville, CO, USA), and 9 detection fibers spaced at distances from 1.4 to 8.7 mm from the source. Measurements were made with the probe in contact with the interior surface of the pleural cavity. The reflected light was collected by the detection fibers which are imaged via a spectrograph onto a CCD, to measure radially-resolved diffuse reflectance. Background signal was measured in the same tissue with the white light source turned off, and then subtracted from each measurement. Each tissue spectrum is divided by the spectrum obtained with the same light source and detector in an integrating sphere to account for the wavelength-dependence of the white light source power and CCD response. […]

[1] = 22 sites, 8 patients, 2 mg kg^−1

mean of the local Photofrin concentrations measured from all sites [1]: 3.94±2.01 mg kg 1
median of the local Photofrin concentrations measured from all sites [1]: 3.37 ± 2.01 mg/kg
Mean Photofrin concentration (pleural site AS): 3.22 ± 0.35 mg/kg
Mean Photofrin concentration (pleural site Peri): 1.87 ± 0.31 mg/kg
Substance: Photofrin
Mean Photofrin concentration (pleural site ACW): 2.80 ± 0.27 mg/kg and 9.38 ± 0.57 mg/kg
Mean Photofrin concentration (pleural site Apex): 4.71 ± 0.15 mg/kg and 3.12 ± 0.35 mg/kg and 1.13 ± 0.02 mg/kg and 3.27 ± 0.71 mg/kg and 7.19 ± 0.92 mg/kg and 4.56 ± 0.45 mg/kg
Mean Photofrin concentration (pleural site PCW): 3.47 ± 0.42 mg/kg and 1.47 ± 0.20 mg/kg and 1.58 ± 0.21 mg/kg and 5.23 ± 0.47 mg/kg and 2.32 ± 0.23 mg/kg
Mean Photofrin concentration (pleural site PM): 5.65 ± 0.67 mg/kg and 3.62 ± 0.61 mg/kg and 6.81 ± 0.35 mg/kg
Mean Photofrin concentration (pleural site PS): 2.94 ± 0.12 mg/kg and 3.01 ± 0.05 mg/kg and 5.73 ± 0.24 mg/kg and 3.54 ± 0.16 mg/kg
difference of local sensitizer concentrations within the same patient (patient #020, same administered dose 2 mg kg^−1): 2.9 times
difference of local sensitizer concentrations between patients (patients #016 and #018, same administered dose 2 mg kg^−1): 8.3 times
